Where two headings read alike, the source gives them in different places.
What was measured:
[1] = system: SARS-CoV-2; details: for potency loss / fold less active relative to compound 8 (SARS-CoV-2): relative to compound 8, VeroE6; for SI (CC50/EC50) / anti-SARS-CoV-2 activity in words: VeroE6 cells; for anti-SARS-CoV-2 activity in words: SAR discussion
[2] = in vitro; details: African green monkey
[3] = system: SARS-CoV-2; test: microbe, parasite or virus in culture; details: Severe acute respiratory syndrome coronavirus 2, 96 h, read-out: SARS-CoV-2 EC50
[4] = system: VeroE6 cells; test: Cytotoxicity in mock-infected VeroE6 cells (MTS assay); details: read-out: MTS CC50; mock-infected VeroE6 cells, MTS assay
[5] = as above; details: African green monkey
[6] = system: Chikungunya virus; test: Chikungunya virus antiviral assay in Vero A cells; details: read-out: Chikungunya virus EC50
[7] = molecular target: cathepsin B (Homo sapiens, UniProt P07858); test: Cathepsin B inhibition; type: biochemical; details: human protease involved in SARS-CoV-2 entry
[8] = system: SARS-CoV-2 spike pseudotyped VSV; test: organism not typed; type: cell-based; details: Vero C1008, 24 h, read-out: SARS-CoV-2 pseudovirus neutralization EC50 (block of virus entry)
[9] = system: MERS-CoV; test: microbe, parasite or virus in culture; type: cell-based; details: Middle East respiratory syndrome-related coronavirus, Huh-7, 42 h, read-out: MERS EC50
[10] = molecular target: SARS-CoV-2 Mpro (Severe acute respiratory syndrome coronavirus 2, UniProt P0DTD1); test: SARS-CoV-2 main protease (Mpro) FRET assay; type: biochemical; details: highest tested concentration of 100 µM
Protocol: Compounds were tested in a Förster resonance energy transfer (FRET) assay for inhibition of the SARS-CoV-2 Mpro. The peptide Dabcyl-KTSAVLQ↓SGFRKM-E(Edans)-NH2 (Biosyntan, Berlin, Germany) (↓ indicates the cleavage site), corresponding to the P7–P6′ residues of the nsp4–nsp5 processing site of the viral polyprotein pp1a/pp1ab, was used as the substrate. Quenching of the Edans fluorescence by the Dabcyl residue was eliminated after cleavage of the scissile bond between P1-Gln and P1′-Ser and the difference in fluorescence emission was measured with a Tecan Spark fluorescence plate reader, operated at an excitation wavelength of 360 nm and an emission wavelength of 460 nm.
Candidate compounds were kept in a DMSO stock solution; the Mpro was in a buffer containing 20 mM HEPES, 120 mM NaCl, 0.4 mM EDTA, 20% glycerol, pH 7.0. DTT (4 mM) was added to the buffer prior to running the assay. Following incubation of 50 nM SARS-CoV-2 Mpro with 100 µM of the candidate compound for 10 min at 37 °C, the reaction was initiated by the addition of 10 µM of the FRET substrate to each well. The final DMSO concentration was <2%.

[11] = in vitro; details: human
[12] = molecular target: SARS-CoV-2 nsp14 (N7-methyltransferase activity) (Severe acute respiratory syndrome coronavirus 2, UniProt P0DTD1); test: Nsp14 RapidFire MS assay; type: biochemical; details: highest tested concentration of 100 µM
[13] = molecular target: SARS-CoV-2 replication–transcription complex (Severe acute respiratory syndrome coronavirus 2, UniProt P0DTD1); test: SARS-CoV-2 polymerase assay; type: biochemical; details: highest tested concentration of 100 µM
[14] = molecular target: cathepsin L (Homo sapiens, UniProt P07711); test: Cathepsin L inhibition; type: biochemical; details: human protease involved in SARS-CoV-2 entry
cathepsin L, sequence (P07711 114-333): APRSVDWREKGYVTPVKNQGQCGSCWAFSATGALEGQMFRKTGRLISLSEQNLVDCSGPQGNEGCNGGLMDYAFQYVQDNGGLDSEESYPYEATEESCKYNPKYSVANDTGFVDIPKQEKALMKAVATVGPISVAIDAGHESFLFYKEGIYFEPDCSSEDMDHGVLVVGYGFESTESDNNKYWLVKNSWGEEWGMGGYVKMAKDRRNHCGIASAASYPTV

[15] = system: MERS-CoV spike pseudotyped VSV; test: organism not typed; type: cell-based; details: Vero C1008, 24 h, read-out: MERS pseudovirus neutralization EC50 (block of virus entry)
[16] = system: SARS-CoV-1; test: microbe, parasite or virus in culture; type: cell-based; details: Severe acute respiratory syndrome coronavirus, Vero C1008, read-out: SARS-CoV-1 EC50

Row | Compound | CC50 [2] [µM] | EC50 [3] [µM] | SI (CC50/EC50) [1] | further results
1 | c1ccc(-c2nc(-c3ccnnc3)no2)c(OC2CCN(C3CCCC3)C2)c1 (stereo not drawn) [Compound 25, 5-[2-(1-Cyclopentylpyrrolidin-3-yl)oxyphenyl]-3-pyridazin-4-yl-1,2,4-oxadiazole] | > 50 | > 50 |  | potency loss / fold less active relative to compound 8 (SARS-CoV-2) [1]: more than 10 fold
2 | Cc1cnccc1-c1noc(-c2ccccc2OC2CCN(C3CCCC3)C2)n1 (stereo not drawn) [Compound 31, 5-[2-(1-Cyclopentylpyrrolidin-3-yl)oxyphenyl]-3-(3-methyl-4-pyridyl)-1,2,4-oxadiazole] | 18 ± 9 | 1.8 ± 0.3 |  | 
3 | c1ccc(CCN2CC[C@@H](Oc3ccccc3-c3nc(-c4ccncc4)no3)C2)cc1 [Compound 1a, 5-[2-[(3R)-1-(2-Phenylethyl)pyrrolidin-3-yl]oxyphenyl]-3-(4-pyridyl)-1,2,4-oxadiazole] | 29 ± 24 | 3.6 ± 1.8 | 8.1 | 
4 | N#C[C@@]1(c2ccc3c(N)ncnn23)O[C@H](CO)[C@@H](O)[C@H]1O [GS-441524, reference compound] |  | 0.82 |  | 
5 | c1ccc(-c2nc(-c3ccncc3)no2)c(OCC2CCN(CC3CCCC3)C2)c1 (stereo not drawn) [Compound 11, 5-[2-[[1-(Cyclopentylmethyl)pyrrolidin-3-yl]methoxy]phenyl]-3-(4-pyridyl)-1,2,4-oxadiazole] | > 50 | 40 ± 14 |  | fold less active than compound 10 (SARS-CoV-2) ([1]; relative to compound 10, VeroE6): 20 fold
6 | c1ccc(-c2nc(-c3ccncc3)no2)c(OC2CCN(C3CCCC3)CC2)c1 [Compound 12, 5-[2-[(1-Cyclopentyl-4-piperidyl)oxy]phenyl]-3-(4-pyridyl)-1,2,4-oxadiazole] | 46 ± 18 | 1.7 ± 0.5 | 27.1 | 
7 | 5-[2-(1-Cyclopentylpyrrolidin-3-yl)oxyphenyl]-3-(4-pyridyl)-1,2,4-thiadiazole [Compound 49] |  |  | 2.6 | EC50 ([1]; read-out: SARS-CoV-2 EC50): 5.4 ± 2.1 µM; CC50 [4]: 14 ± 1 µM
8 | c1ccc(-c2nc(-c3ccncc3)ns2)c(OC2CCN(C3CCCC3)C2)c1 (stereo not drawn) [Compound 46, 5-[2-(1-Cyclopentylpyrrolidin-3-yl)oxyphenyl]-3-(4-pyridyl)-1,2,4-thiadiazole] |  | 2.3 ± 0.4 | 6.5 | CC50 [5]: 15 ± 1 µM
9 | CN(CCOc1ccccc1-c1nc(-c2ccncc2)no1)C1CCCC1 [Compound 14, N-Methyl-N-[2-[2-[3-(4-pyridyl)-1,2,4-oxadiazol-5-yl]phenoxy]ethyl]cyclopentanamine] | 37 ± 11 | 8.5 ± 4 | 4.4 | 
10 | c1ccc(-c2nc(-c3ccncc3)no2)c(OCC2CCN(C3CCCC3)C2)c1 (stereo not drawn) [Compound 10, 5-[2-[(1-Cyclopentylpyrrolidin-3-yl)methoxy]phenyl]-3-(4-pyridyl)-1,2,4-oxadiazole] | 27 ± 6 | 1.7 ± 0.3 | 15.9 | 
11 | FC(F)(F)c1ccncc1-c1noc(-c2ccccc2OC2CCN(C3CCCC3)C2)n1 (stereo not drawn) [Compound 29, 5-[2-(1-Cyclopentylpyrrolidin-3-yl)oxyphenyl]-3-[4-(trifluoromethyl)-3-pyridyl]-1,2,4-oxadiazole] | 26 ± 7 | 3.1 ± 1.3 | 8.4 | 
12 | c1ccc(-c2nc(-c3ccncc3)no2)c(OCCNC2CCCC2)c1 [Compound 13, N-[2-[2-[3-(4-Pyridyl)-1,2,4-oxadiazol-5-yl]phenoxy]ethyl]cyclopentanamine] | 46 ± 13 | 8.4 ± 2.5 | 5.5 | 
13 | COc1ccc(-c2noc(-c3ccccc3OC3CCN(C4CCCC4)C3)n2)cn1 (stereo not drawn) [Compound 27, 5-[2-(1-Cyclopentylpyrrolidin-3-yl)oxyphenyl]-3-(6-methoxy-3-pyridyl)-1,2,4-oxadiazole] | 20 ± 5.5 | 4.1 ± 2.2 | 4.9 | 
14 | c1ccc(-c2noc(-c3ccccc3OC3CCN(C4CCCC4)C3)n2)cc1 (stereo not drawn) [Compound 26, 5-[2-(1-Cyclopentylpyrrolidin-3-yl)oxyphenyl]-3-phenyl-1,2,4-oxadiazole] | 9 ± 2.5 | > 50 | <1 | anti-SARS-CoV-2 activity in words [1]: showed only cytotoxicity
15 | FC(F)(F)c1cncc(-c2noc(-c3ccccc3OC3CCN(C4CCCC4)C3)n2)c1 (stereo not drawn) [Compound 28, 5-[2-(1-Cyclopentylpyrrolidin-3-yl)oxyphenyl]-3-[5-(trifluoromethyl)-3-pyridyl]-1,2,4-oxadiazole] | 10 ± 1 | 2.1 ± 0.1 | 4.8 | 
16 | c1ccc(-c2noc(-c3ccncc3)n2)c(OC2CCN(C3CCCC3)C2)c1 (stereo not drawn) [Compound 35, 3-[2-(1-Cyclopentylpyrrolidin-3-yl)oxyphenyl]-5-(4-pyridyl)-1,2,4-oxadiazole] | 30 ± 12 | 6.2 ± 2.7 | 4.8 | 
17 | c1ccc(CCN2CCC(Oc3ccccc3-c3nc(-c4ccncc4)no3)C2)cc1 (stereo not drawn) [Compound 1, 5-(2-((1-Phenethylpyrrolidin-3-yl)oxy)phenyl)-3-(pyridin-4-yl)-1,2,4-oxadiazole] | 21 ± 11 | 4.7 ± 3 | 4.5 | EC50 [6]: > 100 µM; activity against cathepsin B [7]: inactive; EC50 [8]: 1.25 µM; EC50 [9]: 5 µM; inhibitory activity on SARS-CoV-2 Mpro [10]: did not show any inhibitory activity; CC50 [11]: > 20 µM; inhibitory activity on SARS-CoV-2 nsp14 (N7-methyltransferase activity) [12]: did not show any inhibitory activity; inhibitory activity on SARS-CoV-2 replication–transcription complex [13]: did not show any inhibitory activity; activity against cathepsin L [14]: inactive; EC50 [15]: 3.4 µM; EC50 [16]: 4.2 ± 0.2 µM
18 | c1ccc(-c2nc(-c3ccncc3)no2)c(OC2CCN(CC3CCCC3)C2)c1 (stereo not drawn) [Compound 9, 5-[2-[1-(Cyclopentylmethyl)pyrrolidin-3-yl]oxyphenyl]-3-(4-pyridyl)-1,2,4-oxadiazole] | 24 ± 8 | 1.6 ± 0.8 | 15 | 
19 | c1cncc(-c2noc(-c3ccccc3OC3CCN(C4CCCC4)C3)n2)c1 (stereo not drawn) [Compound 23, 5-[2-(1-Cyclopentylpyrrolidin-3-yl)oxyphenyl]-3-(3-pyridyl)-1,2,4-oxadiazole] | > 50 | 8.4 ± 5.7 | >6 | anti-SARS-CoV-2 activity in words [1]: equipotent to 8
20 | c1ccc(CCN2CC[C@H](Oc3ccccc3-c3nc(-c4ccncc4)no3)C2)cc1 [Compound 1b, 5-[2-[(3S)-1-(2-Phenylethyl)pyrrolidin-3-yl]oxyphenyl]-3-(4-pyridyl)-1,2,4-oxadiazole] | 18 ± 11 | 1.4 ± 0.1 | 12.8 | 
21 | Cc1ccncc1-c1noc(-c2ccccc2OC2CCN(C3CCCC3)C2)n1 (stereo not drawn) [Compound 30, 5-[2-(1-Cyclopentylpyrrolidin-3-yl)oxyphenyl]-3-(4-methyl-3-pyridyl)-1,2,4-oxadiazole] | 47 ± 1 | 1.4 ± 1 | 33.6 | 
22 | c1ccc(-c2nnc(-c3ccncc3)o2)c(OC2CCN(C3CCCC3)C2)c1 (stereo not drawn) [Compound 38, 2-[2-(1-Cyclopentylpyrrolidin-3-yl)oxyphenyl]-5-(4-pyridyl)-1,3,4-oxadiazole] | 47 ± 15 | 15 ± 3 | 3.1 | potency loss / fold less active relative to compound 8 (SARS-CoV-2) [1]: 3 fold
23 | c1ccc(-c2nc(-c3cncnc3)no2)c(OC2CCN(C3CCCC3)C2)c1 (stereo not drawn) [Compound 24, 5-[2-(1-Cyclopentylpyrrolidin-3-yl)oxyphenyl]-3-pyrimidin-5-yl-1,2,4-oxadiazole] | > 50 | 15 ± 2 | >3.3 | potency loss / fold less active relative to compound 8 (SARS-CoV-2) [1]: 3 fold
24 | c1ccc(-c2nc(-c3ccncc3)no2)c(OC2CCN(C3CCCC3)C2)c1 (stereo not drawn) [Compound 8, 5-[2-(1-Cyclopentylpyrrolidin-3-yl)oxyphenyl]-3-(4-pyridyl)-1,2,4-oxadiazole] | 41 ± 25 | 5.4 ± 3.5 | 7.6 | 

From PMC8840742 (Molecules, 2022)
